Laboratory results: patent US6472418B1, “Non-peptide NK1 receptors antagonists” (Warner-Lambert Company, priority 1998, dated 2002)
pIC50: −log10 of the molar value.

target: T1, Human NK1 Receptor (Homo sapiens, UniProt P25103); experiment: In Vitro Human NK1 Receptor Binding Assay ([125I]Bolton-Hunter substance P displacement, IM9 cells); details: Human lymphoma IM9 cells, [125I]Bolton-Hunter substance P (0.05-0.1 nM), 50 min at 21° C.; Table 1; read-out: NK1 binding IC50
T1 construct: endogenous in cells; host or cells: Human lymphoma IM9 cells (whole cells)
T1 sequence (P25103 whole entry): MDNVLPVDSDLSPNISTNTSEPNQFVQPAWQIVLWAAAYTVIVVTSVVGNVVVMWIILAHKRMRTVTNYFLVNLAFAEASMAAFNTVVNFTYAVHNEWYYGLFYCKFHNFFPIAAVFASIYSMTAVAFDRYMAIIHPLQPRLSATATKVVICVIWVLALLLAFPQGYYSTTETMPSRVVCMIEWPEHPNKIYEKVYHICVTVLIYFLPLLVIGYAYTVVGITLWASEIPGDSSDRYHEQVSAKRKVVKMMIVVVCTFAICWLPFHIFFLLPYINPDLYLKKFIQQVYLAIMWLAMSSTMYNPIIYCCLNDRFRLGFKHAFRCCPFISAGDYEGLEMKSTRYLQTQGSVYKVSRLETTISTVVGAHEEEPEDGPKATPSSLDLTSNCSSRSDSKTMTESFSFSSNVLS
Summary of the method: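 Radioligand displacement on whole IM9 human lymphoma cells (2.5×10^6 cells/mL) using [125I]Bolton-Hunter substance P (0.05-0.1 nM), 50 min at 21° C in Tris pH 7.4/MnCl2 buffer with protease inhibitors. Non-specific binding defined by […] [Sar9, Met(O2)11] substance P. Filtration, gamma counting, iterative curve fitting.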

Compound | pIC50
Cc1cc(CN[C@H](Cc2c[nH]c3ccccc23)C(=O)N[C@@H](C)c2ccccc2)oc1C (relative stereo) [Example 8, 2-[(4,5-Dimethyl-furan-2-ylmethyl)-amino]-3-(1H-indol-3-yl)-N-(1-phenyl-ethyl)-propionamide, [R-(R*,S*)]] | 7.57
C[C@H](NC(=O)[C@@H](Cc1c[nH]c2ccccc12)NCc1ccc(Cl)s1)c1ccccc1 (relative stereo) [Example 12, 2-[(5-Chloro-thiophen-2-ylmethyl)-amino]-3-(1H-indol-3-yl)-N-(1-phenyl-ethyl)-propionamide, [R(R*,S*)]] | 7.85

same assay, conditions: Human lymphoma IM9 cells, [125I]Bolton-Hunter substance P; Table 3, array-synthesis products; read-out: IC50 (nM) hNK1

Compound | IC50 [nM]
O=C(NCc1ccc([N+](=O)[O-])o1)C(Cc1c[nH]c2ccccc12)NCc1cc2ccccc2o1 (stereo not drawn) [Example 216, 2-[(Benzofuran-2-ylmethyl)-amino]-3-(1H-indol-3-yl)-N-(5-nitro-furan-2-ylmethyl)-propionamide] | > 10000
O=C(NCc1ccccc1Cl)C(Cc1c[nH]c2ccccc12)NCc1cc2ccccc2o1 (stereo not drawn) [Example 298, 2-[(Benzofuran-2-ylmethyl)-amino]-N-(2-chloro-benzyl)-3-(1H-indol-3-yl)-propionamide] | 221
Cc1ccc(CNC(=O)C(Cc2c[nH]c3ccccc23)NCc2cc3ccccc3o2)cc1 (stereo not drawn) [Example 209, 2-[(Benzofuran-2-ylmethyl)-amino]-3-(1H-indol-3-yl)-N-(4-methyl-benzyl)-propionamide] | 82
O=C(NCc1cccc(OC(F)(F)F)c1)C(Cc1c[nH]c2ccccc12)NCc1cc2ccccc2o1 (stereo not drawn) [Example 200, 2-[(Benzofuran-2-ylmethyl)-amino]-3-(1H-indol-3-yl)-N-(3-trifluoromethoxy-benzyl)-propionamide] | 355
O=C(NCC1CCNCC1)C(Cc1c[nH]c2ccccc12)NCc1cc2ccccc2o1 (stereo not drawn) [Example 203, 2-[(Benzofuran-2-ylmethyl)-amino]-3-(1H-indol-3-yl)-N-piperidin-4-ylmethyl-propionamide] | > 10000
O=C(NCc1ccccn1)C(Cc1c[nH]c2ccccc12)NCc1cc2ccccc2o1 (stereo not drawn) [Example 192, 2-[(Benzofuran-2-ylmethyl)-amino]-3-(1H-indol-3-yl)-N-pyridin-2-ylmethyl-propionamide] | 1980
Cc1ccc(C(C)NC(=O)C(Cc2c[nH]c3ccccc23)NCc2cc3ccccc3o2)s1 (stereo not drawn) [Example 208, 2-[(Benzofuran-2-ylmethyl)-amino]-3-(1H-indol-3-yl)-N-[1-(5-methyl-thiophen-2-yl)-ethyl]-propionamide] | 15
O=C(NC1CCc2ccccc21)C(Cc1c[nH]c2ccccc12)NCc1cc2ccccc2o1 (stereo not drawn) [Example 195, 2-[(Benzofuran-2-ylmethyl)-amino]-N-indan-1-yl-3-(1H-indol-3-yl)-propionamide] | 1750
O=C(NCc1ccccc1C(F)(F)F)C(Cc1c[nH]c2ccccc12)NCc1cc2ccccc2o1 (stereo not drawn) [Example 292, 2-[(Benzofuran-2-ylmethyl)-amino]-3-(1H-indol-3-yl)-N-(2-trifluoromethyl-benzyl)-propionamide] | 1130
O=C(NCc1cccc(Br)c1)C(Cc1c[nH]c2ccccc12)NCc1cc2ccccc2o1 (stereo not drawn) [Example 219] | 31

same assay, conditions: Table 4; [125I]Bolton-Hunter substance P displacement, human IM9 cells; read-out: IC50 (nM) hNK1

Compound | IC50 [nM]
CC(NC(=O)C(C)(Cc1c[nH]c2ccccc12)NCCNC(=O)CN1C(=O)c2ccccc2C1=O)c1ccccc1 (stereo not drawn) [compound 321, 2-{2-[2-(1,3-Dioxo-1,3-dihydro-isoindol-2-yl)-acetylamino]-ethylamino}-3-(1H-indol-3-yl)-2-methyl-N-(1-phenyl-ethyl)-propionamide] | 3040
CC(NC(=O)C(C)(Cc1c[nH]c2ccccc12)NCc1ccc2c(c1)Cc1ccccc1-2)c1ccccc1 (stereo not drawn) [compound 354, 2-[(9H-Fluoren-2-ylmethyl)-amino]-3-(1H-indol-3-yl)-2-methyl-N-(1-phenyl-ethyl)-propionamide] | 1730
CC(NC(=O)C(C)(Cc1c[nH]c2ccccc12)NCc1ccoc1)c1ccccc1 (stereo not drawn) [compound 312, 2-[(Furan-3-ylmethyl)-amino]-3-(1H-indol-3-yl)-2-methyl-N-(1-phenyl-ethyl)-propionamide] | 1820
CC(NC(=O)C(C)(Cc1c[nH]c2ccccc12)NCc1cccnc1)c1ccccc1 (stereo not drawn) [compound 320, 3-(1H-Indol-3-yl)-2-methyl-N-(1-phenyl-ethyl)-2-[(pyridin-3-ylmethyl)-amino]-propionamide] | 5970

same assay, conditions: Table 5; [125I]Bolton-Hunter substance P displacement, human IM9 cells; read-out: IC50 (nM) hNK1

Compound | IC50 [nM]
CCCc1nc(-n2cccc2)c(CNC(Cc2c[nH]c3ccccc23)C(=O)NC(C)c2ccccc2)[nH]1 (stereo not drawn) [compound 375] | 165
CNS(=O)(=O)c1cc(Cl)ccc1CNC(Cc1c[nH]c2ccccc12)C(=O)NC(C)c1ccccc1 (stereo not drawn) [compound 369] | 450
CC(NC(=O)C(Cc1c[nH]c2ccccc12)NCCCc1ccccc1)c1ccccc1 (stereo not drawn) [compound 403] | 3910
Cc1c(-c2ccccc2)occ(CNC(Cc2c[nH]c3ccccc23)C(=O)NC(C)c2ccccc2)c1=O (stereo not drawn) [compound 373] | 507
CC(NC(=O)C(Cc1c[nH]c2ccccc12)NCc1cccc(OCc2ccccc2)c1)c1ccccc1 (stereo not drawn) [compound 382] | > 10000
CC(NC(=O)C(Cc1c[nH]c2ccccc12)NCC(=Cc1ccccc1)c1ccccc1)c1ccccc1 (stereo not drawn) [compound 376] | > 10000
CC(NC(=O)C(Cc1c[nH]c2ccccc12)NCc1ccc(-c2ccc([N+](=O)[O-])cc2)o1)c1ccccc1 (stereo not drawn) [compound 390] | 50
CC(NC(=O)C(Cc1c[nH]c2ccccc12)NCc1cc(C(F)(F)F)cc(C(F)(F)F)c1)c1ccccc1 (stereo not drawn) [compound 398] | > 10000
CC(NC(=O)C(Cc1c[nH]c2ccccc12)NCc1cccs1)c1ccccc1 (stereo not drawn) [compound 396] | 1070
CC(NC(=O)C(Cc1c[nH]c2ccccc12)NCc1ccc2ccccc2c1)c1ccccc1 (stereo not drawn) [compound 394] | 158
CC(NC(=O)C(Cc1c[nH]c2ccccc12)NCC1CC=C(CCCC(C)(C)O)CC1)c1ccccc1 (stereo not drawn) [compound 365] | 5280

same assay, conditions: human NK1 receptor, IM9 cells, [125I]Bolton-Hunter substance P; read-out: IC50 (nM) hNK1

Compound | IC50 [nM]
COc1cccc(CNC(=O)C(C)(Cc2c[nH]c3ccccc23)NCc2cc3ccccc3o2)c1OC (stereo not drawn) [compound 142, 2-[(Benzofuran-2-ylmethyl)-amino]-N-(2,3-dimethoxy-benzyl)-3-(1H-indol-3-yl)-2-methyl-propionamide] | 1960
CC(Cc1c[nH]c2ccccc12)(NCc1cc2ccccc2o1)C(=O)NCCc1ccccn1 (stereo not drawn) [compound 45, 2-[(Benzofuran-2-ylmethyl)-amino]-3-(1H-indol-3-yl)-2-methyl-N-(2-pyridin-2-yl-ethyl)-propionamide] | 913
CC(Cc1c[nH]c2ccccc12)(NCc1cc2ccccc2o1)C(=O)NCC1(c2ccccc2)CC1 (stereo not drawn) [compound 110, 2-[(Benzofuran-2-ylmethyl)-amino]-3-(1H-indol-3-yl)-2-methyl-N-(1-phenyl-cyclopropylmethyl)-propionamide] | 1140
CC(Cc1c[nH]c2ccccc12)(NCc1cc2ccccc2o1)C(=O)NCc1ncc(C(=O)O)c(O)n1 (stereo not drawn) [compound 43, 2-{[2-[(Benzofuran-2-ylmethyl)-amino]-3-(1H-indol-3-yl)-2-methyl-propionylamino]-methyl}-4-hydroxy-pyrimidine-5-carboxylic acid] | 3610
CC(NC(=O)C(C)(Cc1c[nH]c2ccccc12)NCc1cc2ccccc2o1)C(C)(C)C (stereo not drawn) [compound 82, 2-[(Benzofuran-2-ylmethyl)-amino]-3(1H-indol-3-yl)-2-methyl-N-(1,2,2-trimethyl-propyl)-propionamide] | 1140
CC1CCCC(C)N1CCCCNC(=O)C(C)(Cc1c[nH]c2ccccc12)NCc1cc2ccccc2o1 (stereo not drawn) [compound 88, 2-[(Benzofuran-2-ylmethyl)-amino]-N-[4-(2,6-dimethyl-piperidin-1-yl)-butyl]-3-(1H-indol-3-yl)-2-methyl-propionamide] | > 10000
CC(Cc1c[nH]c2ccccc12)(NCc1cc2ccccc2o1)C(=O)NCCn1cccc1 (stereo not drawn) [compound 121, 2-[(Benzofuran-2-ylmethyl)-amino]-3-(1H-indol-3-yl)-2-methyl-N-(2-pyrrol-1-yl-ethyl)-propionamide] | 654
CC(Cc1c[nH]c2ccccc12)(NCc1cc2ccccc2o1)C(=O)NCc1ccccc1Br (stereo not drawn) [compound 65, 2-[(Benzofuran-2-ylmethyl)-amino]-N-(2-bromo-benzyl)-3-(1H-indol-3-yl)-2-methyl-propionamide] | 700
CC(NC(=O)C(C)(Cc1c[nH]c2ccccc12)NCc1cc2ccccc2o1)c1cc(Cl)sc1Cl (stereo not drawn) [compound 122, 2-[(Benzofuran-2-ylmethyl)-amino]-N-[1-(2,5-dichloro-thiophen-3-yl)-ethyl]-3-(1H-indol-3-yl)-2-methyl-propionamide] | 442
CN1CCCC1CCNC(=O)C(C)(Cc1c[nH]c2ccccc12)NCc1cc2ccccc2o1 (stereo not drawn) [compound 52, 2-[(Benzofuran-2-ylmethyl)-amino]-3-(1H-indol-3-yl)-2-methyl-N-[2-(1-methyl-pyrrolidin-2-yl)-ethyl]-propionamide] | > 10000
CC(Cc1c[nH]c2ccccc12)(NCc1cc2ccccc2o1)C(=O)NC1CCCCC1 (stereo not drawn) [compound 26, 2-[(Benzofuran-2-ylmethyl)-amino]-N-cyclohexyl-3-(1H-indol-3-yl)-2-methyl-propionamide] | 1010
CC(Cc1cccc(C(F)(F)F)c1)NC(=O)C(C)(Cc1c[nH]c2ccccc12)NCc1cc2ccccc2o1 (stereo not drawn) [compound 79, 2-[(Benzofuran-2-ylmethyl)-amino]-3-(1H-indol-3-yl)-2-methyl-N-[1-methyl-2-(3-trifluoromethyl-phenyl)-ethyl]-propionamide] | > 10000
